The test system of one series is six non-proteasomes. Briefly: Non-proteasome substrate-based assay (six non-proteasomes).
In another series the test system is MM patients. To be noted: carfilzomib-treated MM patients ref 13, 14; cited from earlier work.
A further series relates to ARP1 cells. Briefly: CCK-8 cell viability, ARP1. The format is cell-based. To be noted: Homo sapiens, ARP-1; ARP1, 72h. As for the experimental part:
(§1) Cell viability was detected by Cell Counting Kit-8 (CCK-8) (Dojindo Laboratories, Japan). MM cells were seeded on 96-well plates and placed in an incubator for 24 h. After being treated with drugs for another 72 h, cell viability was examined using the CCK-8 reagent. The CellTiter-Glo Luminescent Cell Viability Assay Kit (Promega, USA) was used to determine the viability of CD138^+ cells and PBMCs. For flow cytometry, MM cells were seeded in 6-well plates and placed in an incubator for 24 h. Then, the MM cells were incubated with drugs for another 24 h and collected for flow cytometry analysis. The cell cycle was examined by flow cytometry using a propidium iodide (PI) staining assay kit (BD Biosciences, USA). Cell apoptosis was detected by flow cytometry using the Annexin V/PI Kit (BD Biosciences, USA).
(§2) The Cell Counting Kit-8 (CCK-8) assay was used for cell viability assessment. CCK-8 provided a highly water-soluble tetrazole salt, WST-8, which would produce a water-soluble orange formazan in the presence of dehydrogenase derived from living cells. The OD value was detected at 450 nm with a microplate analyzer to indirectly reflect the number of living cells. […] Among the four patients, patients 1 (Fig. 2E), 2 (Fig. 2F), and 3 (Fig. 2G) were newly diagnosed, and patient 4 (Fig. 2H) had experienced relapse after prior therapies.

The test system of a further series is RPMI-8226 cells. Briefly: CCK-8 cell viability, RPMI-8226. To be noted: Homo sapiens; RPMI-8226, 72h. Type of series: cell-based. As for the experimental part: as §1, §2
The test system of a further series is MM.1R cells. Briefly: CCK-8 cell viability, MM.1R. Type of series: cell-based. To be noted: Homo sapiens, 72h. The procedure:
as §1, §2

In series [1] the test system is NF-κB activity in NF-κB-luc HEK293T cells. Put plainly: NF-κB luciferase reporter assay, TNF-α stimulated. To be noted: Homo sapiens, HEK-293T, read-out: IC50 of NF-κB luciferase activity. (In general: A reporter such as luciferase makes a cellular process visible.)
Description: The plasmids pcDNA3.1-(+)-NF-κB and pcDNA3.1-(+)-Renilla were mixed with Lipofectamine 2000 (Invitrogen, USA) and then transfected into HEK293T cells (Institute of Biochemistry and Cell Biology, China). […] The activity of NF-κB was examined by the Dual-Luciferase® Reporter Assay System (Promega, USA) as previously described[22].
Activation of NF-κB was determined by luciferase reporter gene assay using stably transfected NF-κB-luc HEK293T cells. The NF-κB signaling pathway was activated by TNF-α stimulation.
The subject of series [2] is proteasome CT-L activity in MM.1S cells. Briefly: Proteasome-Glo cell-based assay, CT-L activity in MM.1S cells. To be noted: read-out: IC50 of cellular proteasome CT-L activity, treated 1 h.
Description: (§3) In vitro, the 20S proteasome activity of cells was detected by using the Proteasome-Glo Assay (Promega, USA) either after drug treatment for 4, 24, or 48 h in fresh medium.
(§4) Proteasome activity was measured by the Proteasome-Glo cell-based assay.
In a further series the test system is MM.1S cells. Briefly: CCK-8 cell viability, MM.1S. To be noted: Homo sapiens, MM1.S, 72h. The format is cell-based. As for the experimental part:
as §1, §2

For series [3], the system named is proteasome CT-L activity in MM.1R cells. Put plainly: Proteasome-Glo cell-based assay, CT-L activity in MM.1R cells. To be noted: read-out: IC50 of cellular proteasome CT-L activity, treated 1 h.
Description: as §3, §4
The subject of series [4] is MM patient-derived CD138+ cells. Put plainly: Viability of MM patient-derived BM CD138+ cells. Type of series: cell-based. Conditions: Homo sapiens, primary MM cell. The procedure: Human MM.1S (dexamethasone-sensitive), MM.1R (dexamethasone-resistant), ARP1, and RPMI-8226 MM cell lines were obtained from American Type Culture Collection (ATCC, Rockville, USA) and cultured in RPMI-1640 medium (Gibco-BRL, USA) supplemented with 10% fetal bovine serum (Gibco, USA) and 1% penicillin/streptomycin (Gibco, USA). All the cells are maintained in 5% CO2 at 37 °C and have been tested for mycoplasma contamination. Peripheral blood mononuclear cells (PBMCs) were collected from healthy volunteers. BM mononuclear cells and PBMCs from MM patients were isolated by Ficoll-Hypaque density-gradient separation. CD138^+ cells were isolated from BM mononuclear cells of MM patients using CD138^+ Micro Beads and the Auto MACS magnetic cell sorter (Miltenyi Biotech, Germany). All primary samples were obtained with informed consent from patients with MM or healthy donors according to the Declaration of Helsinki. This study was approved by the Review Committee of the First Affiliated Hospital of Nanjing Medical University.
as §1, §2

In series [5] the test system is proteasome CT-L activity in RPMI-8226 cells. Put plainly: Proteasome-Glo cell-based assay, CT-L activity in RPMI-8226 cells. To be noted: read-out: IC50 of cellular proteasome CT-L activity, treated 1 h.
Description: as §3, §4
A further series deals with T1, hERG channels (Homo sapiens, UniProt Q12809).
T1 construct: expressed in transfected cells; host or cells: HEK293T
Briefly: hERG whole-cell patch-clamp, tail current. Type of series: cell-based. The procedure:
The activation of the hERG pathway was detected by the whole-cell patch-clamp technique at room temperature (22 ± 1 °C) using an AXON 200B amplifier through a digitizer (DigiData 1440A, Molecular Devices, USA) controlled by pClamp software (v10.0) as previously described.
Human ether-à-go-go-related gene (hERG) K^+ channels are vital in cardiac repolarization[28],[29]. Drug cardiotoxicity can be partially attributed to hERG channel dysfunction that leads to long QT syndrome and ventricular action potential delay. […] The real-time current was measured during drug treatment. Figure 8A presents the command waveform of the tail-current protocol under voltage-clamp mode.

The next series has as its system C57BL/6 mice. Briefly: Cardiotoxicity in C57BL/6 mice (echocardiography, serum enzymes, histopathology). Type of series: in vivo, mouse. Conditions: 8 mg/kg i.p. every 2 days for 1 week. As for the experimental part:
On day 7, the mice were sacrificed after an echocardiography test to harvest the serum for biochemical estimations. Biochemical estimations, including alanine aminotransferase (ALT), aspartate transaminase (AST), lactic dehydrogenase (LDH), creatine kinase-MB (CK-MB), and creatine kinase (CK), were tested using an autoanalyzer (Siemens, USA). Freshly harvested cardiac tissue was fixed in 4% buffered formalin solution for 24 h and embedded in paraffin wax. Sections ([…] thick) were obtained from each sample and stained with H&E. Histologic observation was performed with a Nikon i55 optical microscope (Nikon Corporation, Japan).
In addition, CT-L activity recovered in a time-dependent manner, as previously discovered in vitro (Fig. 7B). […] The echocardiographic analysis was performed at baseline (day 0) and endpoint (day 7) (Fig. 7D). […] We also examined the levels of CK, CK-MB, LDH, ALT, and AST in the blood serum from the treated mice.

The subject of a further series is ARP1 xenografts. Put plainly: ARP1 xenograft in BALB/c nude mice. The format is in vivo, mouse. Conditions: i.v. 4 mg/kg twice a week. As for the experimental part: BALB/c nude mice (male, 4–6 weeks old) were purchased from Ziyuan Co., Ltd. (Hangzhou, China). ARP1 cells (1 × 10^6 cells in 100 μl PBS) were injected subcutaneously into the hindquarters of each mouse. […] All mice were observed every 2 days for at least 7 weeks. Tumor growth was assessed by calculating volume according to the following equation: volume = a × b^2/2, where a is the widest length and b is the perpendicular diameter. On the appointed day, fifteen tumor tissue samples were removed from the mice for hematoxylin and eosin (H&E) staining and stained with Ki67 and CD138 antibodies. Investigators were blinded to the group allocation during measuring tumor size, weight, and performing staining. All animal procedures were approved by the Institutional Review Board of the College of Life Science, Nanjing Normal University (Approval No. IACUC-20200506).
We next validated the anti-tumor role of D395 in vivo. Human MM cell line ARP1 (1 × 10^6 cells per mouse) were injected subcutaneously into BALB/c nude mice. […] The medication was given twice a week. Tumor size was measured every 3 days (Fig. 5A). […] On the endpoint day, all the mice were sacrificed, and tumors were collected (Fig. 5B, C). […] Tumor tissues were sampled for immunohistochemistry. The tissues were stained for Ki67, a cell proliferation marker, to show tumor growth (Fig. 5E).

Another series relates to RPMI-8226 BTZ-DR cells. Put plainly: Annexin V flow cytometry in bortezomib-resistant cells. Type of series: cell-based, human. As for the experimental part: as §1
It is known that drug resistance limits the application of proteasome inhibitors in clinical treatment.

We go through two compounds from paper PMC8087809 (Cell Death & Disease, 2021).

T1 sequence (Q12809 whole entry): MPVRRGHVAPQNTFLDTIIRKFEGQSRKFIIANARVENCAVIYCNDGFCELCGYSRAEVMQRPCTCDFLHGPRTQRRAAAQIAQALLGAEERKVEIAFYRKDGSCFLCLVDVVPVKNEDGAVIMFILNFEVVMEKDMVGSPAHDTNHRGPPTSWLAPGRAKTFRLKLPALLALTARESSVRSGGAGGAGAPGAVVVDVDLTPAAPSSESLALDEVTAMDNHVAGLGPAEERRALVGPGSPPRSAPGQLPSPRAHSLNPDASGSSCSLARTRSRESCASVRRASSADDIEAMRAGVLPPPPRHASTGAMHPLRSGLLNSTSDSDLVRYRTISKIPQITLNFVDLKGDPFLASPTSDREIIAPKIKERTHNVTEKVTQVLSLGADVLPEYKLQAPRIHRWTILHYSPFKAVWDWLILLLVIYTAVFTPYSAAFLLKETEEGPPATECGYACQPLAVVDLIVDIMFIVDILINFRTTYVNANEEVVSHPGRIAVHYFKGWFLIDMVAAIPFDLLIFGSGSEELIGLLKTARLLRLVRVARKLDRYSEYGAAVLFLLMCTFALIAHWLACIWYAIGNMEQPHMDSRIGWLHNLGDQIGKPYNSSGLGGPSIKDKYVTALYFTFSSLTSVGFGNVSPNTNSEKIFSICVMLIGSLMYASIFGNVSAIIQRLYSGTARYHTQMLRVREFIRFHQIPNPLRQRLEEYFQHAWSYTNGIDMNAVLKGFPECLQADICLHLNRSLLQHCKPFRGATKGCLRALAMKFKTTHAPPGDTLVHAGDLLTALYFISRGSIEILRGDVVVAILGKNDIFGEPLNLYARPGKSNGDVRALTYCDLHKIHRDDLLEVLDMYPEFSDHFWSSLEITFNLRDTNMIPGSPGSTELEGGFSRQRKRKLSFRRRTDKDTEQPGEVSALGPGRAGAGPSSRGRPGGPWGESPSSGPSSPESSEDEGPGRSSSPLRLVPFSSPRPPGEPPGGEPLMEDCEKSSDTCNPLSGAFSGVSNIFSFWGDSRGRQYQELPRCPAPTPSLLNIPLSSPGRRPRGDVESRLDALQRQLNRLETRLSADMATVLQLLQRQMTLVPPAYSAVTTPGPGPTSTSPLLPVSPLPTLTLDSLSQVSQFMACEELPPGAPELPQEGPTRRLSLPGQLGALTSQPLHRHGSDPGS
Description for six non-proteasomes: A standard substrate-based assay of non-proteasome was performed as described (GenScript, China)[19].

For orientation: IC50 means the point on the concentration scale where inhibition reaches its midpoint. In the case of `CC(C)C[C@H](NC(=O)[C@H](CCc1ccccc1)NC(=O)CN1CCOCC1)C(=O)N[C@@H](Cc1ccccc1)C(=O)N[C@@H](CC(C)C)C(=O)[C@@]1(C)CO1` [Carfilzomib], the “Inhibitory effect on six non-proteasomes” value in the series with six non-proteasomes is “neither carfilzomib nor D395 exerted an inhibitory effect”. In addition, the Incidence of cardiotoxicity in the series with MM patients is listed as 5–10%. Moreover, the concentration for half-maximal inhibition (IC50) in the series on ARP1 cells was 0.0356 ± 0.0051 µM; in the series with RPMI-8226 cells, 0.0135 ± 0.0019 µM; with MM.1R cells, 0.011 ± 0.0009 µM; in [1], 0.0357 µM; in [2], 0.0138 µM; with MM.1S cells, 0.007 ± 0.0009 µM. The 50% inhibitory concentration (IC50) was found to be 0.0181 µM in series [3]; 0.0565 ± 0.0025 µM in series [4] (24 h, patient 1 (newly diagnosed)); 0.354 ± 0.0194 µM in [4] (24 h, patient 2 (newly diagnosed)); 0.444 ± 0.048 µM in series [4] (24 h, patient 3 (newly diagnosed)); 0.038 ± 0.0058 µM in series [4] (24 h, patient 4 (relapsed)); 0.339 ± 0.0228 µM in series [4] (36 h, patient 2 (newly diagnosed)). The half-maximal inhibitory concentration (IC50) was found to be 0.288 ± 0.0195 µM in [4] (36 h, patient 3 (newly diagnosed)); 0.0258 µM in series [5]; 25.7 µM against hERG channels. In addition, the “Heart histological analysis (H&E)” value in the series with C57BL/6 mice was “myocardial degeneration and myocardial fiber damage with cytoplasmic vacuoles”. Besides, the “FS% and EF% (echocardiography)” value in the series with C57BL/6 mice (day 7) is “the FS% and EF% decreased in both the carfilzomib and D395 groups”. For the same compound, in the series on C57BL/6 mice (day 7), the “Serum CK-MB and LDH levels” value is “increased in the carfilzomib group”. In addition, the “LVEDD, LVESD, LVEDV, LVESV” value in the series on C57BL/6 mice (versus control group) is on record as “No significant differences in LVEDD, LVESD, LVEDV, or LVESV”. In the series on ARP1 xenografts (ARP1 xenograft), the Tumor growth result is “grew slower than those in the control group”. Further, the “Weight of the mice” value with ARP1 xenografts (treatment period) was “the weight of the mice did not change”. Also, the “CT-L, C-L, and T-L activities in tumor samples” value in the series on ARP1 xenografts (tumors at endpoint) was “lower in the carfilzomib and D395 groups than in the control group”.
`CC(C)C[C@H](NC(=O)[C@H](Cc1ccccc1)NC(=O)c1cnccn1)B(O)O` [bortezomib, Bortezomib]: the “Apoptotic population / cell death” value in the series on RPMI-8226 BTZ-DR cells is “lower than that of the RPMI-8226 WT group”.
